IC50 data for 34 compounds are collected here from patent publication US7211572B2 (Japan Tobacco Inc., priority 2003, dated 2007).

The target of this experiment is T1, HIV integrase (Human immunodeficiency virus type 1 group M subtype B, UniProt P12497, F1332H).
T1 construct: HIV integrase full length gene; made in house; host or cells: Escherichia coli BL21(DE3), plasmid pET21a-INH
As to the kind of experiment: Determination of enzyme (HIV integrase) inhibitory activity. The conditions noted are these: recombinant HIV integrase (F185H), strand transfer ELISA, absorbance at 450 nm. The class given is biochemical. An outline of the steps:
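Full-length integrase with F185H, expressed in E. coli and purified, was reacted for 60 min at 37 °C with compound and biotinylated donor DNA bound to streptavidin plates. Target DNA was added for 10 min, then anti-digoxigenin-peroxidase detection at A450; IC50 from % inhibition versus enzyme-free blank.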

Structures are written as SMILES. Counter-ions that a name gives are not always drawn.

Consider `O=c1c(-c2ccccn2)cn2ccn(Cc3cccc(Cl)c3)c(=O)c2c1O` [Example 117, 2-(3-chlorobenzyl)-9-hydroxy-7-(pyridin-2-yl)-2H-pyrido[1,2-a]pyrazine-1,8-dione hydrochloride], for which the half-inhibitory concentration (IC50) was < 0.01 µM.

Consider `CC(C)C(=O)c1cn2ccn(Cc3cccc(Cl)c3)c(=O)c2c(O)c1=O` [Example 149, 2-(3-chlorobenzyl)-9-hydroxy-7-isobutyryl-2H-pyrido[1,2-a]pyrazine-1,8-dione hydrochloride], for which the IC50 was < 0.01 µM.

`COc1ccccc1-c1cn2ccn(Cc3cccc(Cl)c3)c(=O)c2c(O)c1=O` [Example 132, 2-(3-chlorobenzyl)-9-hydroxy-7-(2-methoxyphenyl)-2H-pyrido[1,2-a]pyrazine-1,8-dione hydrochloride]: the IC50 is 0.01 to 0.1 µM.

Consider `COCC1CN(Cc2ccc(Cl)c(Cl)c2)C(=O)c2c(O)c(=O)ccn21` (stereo not shown) [Example 29, 2-(3,4-dichlorobenzyl)-9-hydroxy-4-methoxymethyl-3,4-dihydro-2H-pyrido[1,2-a]pyrazine-1,8-dione], for which the IC50 lay in the range of 0.01 to 0.1 µM.

Take `O=C(Nc1cn2ccn(Cc3ccc(F)cc3)c(=O)c2c(O)c1=O)c1ccccc1` [Example 304, N-[2-(4-fluorobenzyl)-9-hydroxy-1,8-dioxo-1,8-dihydro-2H-pyrido[1,2-a]pyrazin-7-yl]benzamide]: the concentration for half-maximal inhibition (IC50) was < 0.01 µM.

Regarding `COCC(=O)Nc1cn2ccn(Cc3ccc(F)cc3)c(=O)c2c(O)c1=O` [Example 318, N-[2-(4-fluorobenzyl)-9-hydroxy-1,8-dioxo-1,8-dihydro-2H-pyrido[1,2-a]pyrazin-7-yl]-2-methoxyacetamide], the IC50 lay in the range of 0.01 to 0.1 µM.

With `O=C1c2c(O)c(=O)c(-c3ccncc3)cn2CCN1Cc1cccc(Cl)c1F` [Example 340, 2-(3-chloro-2-fluorobenzyl)-9-hydroxy-7-(pyridin-4-yl)-3,4-dihydro-2H-pyrido[1,2-a]pyrazine-1,8-dione hydrochloride], the IC50 is < 0.01 µM.

`C[S+]([O-])c1cn2ccn(Cc3cccc(Cl)c3)c(=O)c2c(O)c1=O` (stereo not shown) [Example 247, 2-(3-chlorobenzyl)-9-hydroxy-7-methanesulfinyl-2H-pyrido[1,2-a]pyrazine-1,8-dione]: the IC50 is 0.01 to 0.1 µM.

With `O=C(NCc1ccccc1)c1cn2ccn(Cc3cccc(Cl)c3)c(=O)c2c(O)c1=O` [Example 180, N-benzyl-2-(3-chlorobenzyl)-9-hydroxy-1,8-dioxo-1,8-dihydro-2H-pyrido[1,2-a]pyrazine-7-carboxamide], the IC50 was < 0.01 µM.

For the compound `O=C1c2c(O)c(=O)c(-c3nccs3)cn2CCN1Cc1ccc(F)c(Cl)c1` [Example 225, 2-(3-chloro-4-fluorobenzyl)-9-hydroxy-7-(thiazol-2-yl)-3,4-dihydro-2H-pyrido[1,2-a]pyrazine-1,8-dione], the IC50 is < 0.01 µM.

In the case of `O=C(NCCF)c1cn2ccn(Cc3cccc(Cl)c3)c(=O)c2c(O)c1=O` [Example 233, N-(2-fluoroethyl)-2-(3-chlorobenzyl)-9-hydroxy-1,8-dioxo-1,8-dihydro-2H-pyrido[1,2-a]pyrazine-7-carboxamide], the IC50 is < 0.01 µM.

For `O=C1c2c(O)c(=O)c(-c3nccs3)cn2CCN1Cc1ccc(F)cc1` [Example 309, 2-(4-fluorobenzyl)-9-hydroxy-7-(thiazol-2-yl)-3,4-dihydro-2H-pyrido[1,2-a]pyrazine-1,8-dione], the concentration for half-maximal inhibition (IC50) is 0.01 to 0.1 µM.

In the case of `CCC(C)(C)C(=O)c1cn2ccn(Cc3ccc(F)cc3)c(=O)c2c(O)c1=O` [Example 382, 7-(2,2-dimethylbutyryl)-2-(4-fluorobenzyl)-9-hydroxy-2H-pyrido[1,2-a]pyrazine-1,8-dione hydrochloride], the IC50 was 0.01 to 0.1 µM.

Consider `CC(C)(C)C(=O)c1cn2c(c(O)c1=O)C(=O)N(Cc1ccc(F)c(Cl)c1)CC2` [Example 221, 2-(3-chloro-4-fluorobenzyl)-7-(2,2-dimethylpropionyl)-9-hydroxy-3,4-dihydro-2H-pyrido[1,2-a]pyrazine-1,8-dione hydrochloride], for which the IC50 was < 0.01 µM.

Regarding `CC(=O)Nc1cn2ccn(Cc3ccc(F)c(Cl)c3)c(=O)c2c(O)c1=O` [Example 240, N-[2-(3-chloro-4-fluorobenzyl)-9-hydroxy-1,8-dioxo-1,8-dihydro-2H-pyrido[1,2-a]pyrazin-7-yl]acetamide], the IC50 is < 0.01 µM.

Turning to `COC(=O)c1cc(F)ccc1CN1CCn2cc(-c3nccs3)c(=O)c(O)c2C1=O` [Example 326, methyl 5-fluoro-2-[9-hydroxy-1,8-dioxo-7-(thiazol-2-yl)-1,3,4,8-tetrahydro-pyrido[1,2-a]pyrazin-2-ylmethyl]benzoate], the IC50 lay in the range of 0.1 to 1 µM.

On to `CC(C)COCc1cc(=O)c(O)c2n1CCN(Cc1ccc(Cl)c(Cl)c1)C2=O` [Example 39, 2-(3,4-dichlorobenzyl)-9-hydroxy-6-isobutoxymethyl-3,4-dihydro-2H-pyrido[1,2-a]pyrazine-1,8-dione], for which the IC50 fell in the range of 0.01 to 0.1 µM.

Consider `O=C(O)c1cn(Cc2cccc(Cl)c2)c(=O)c2c(O)c(=O)ccn12` [Example 98, 2-(3-chlorobenzyl)-9-hydroxy-1,8-dioxo-1,8-dihydro-2H-pyrido[1,2-a]pyrazine-4-carboxylic acid], for which the IC50 was in the range of 0.01 to 0.1 µM.

As for `O=C(OC1CCCCC1)c1cn2ccn(Cc3cccc(Cl)c3)c(=O)c2c(O)c1=O` [Example 160, cyclohexyl 2-(3-chlorobenzyl)-9-hydroxy-1,8-dioxo-1,8-dihydro-2H-pyrido[1,2-a]pyrazine-7-carboxylate], the IC50 was in the range of 0.01 to 0.1 µM.

Turning to `CC(C)C(=O)c1cn2c(c(O)c1=O)C(=O)N(Cc1ccc(Cl)c(Cl)c1)CC2` [Example 384, 2-(3,4-dichlorobenzyl)-9-hydroxy-7-isobutyryl-3,4-dihydro-2H-pyrido[1,2-a]pyrazine-1,8-dione], the IC50 was < 0.01 µM.

In the case of `O=C(Cc1ccccc1)Nc1cn2ccn(Cc3cccc(Cl)c3)c(=O)c2c(O)c1=O` [Example 243, N-[2-(3-chlorobenzyl)-9-hydroxy-1,8-dioxo-1,8-dihydro-2H-pyrido[1,2-a]pyrazin-7-yl]-2-phenylacetamide], the IC50 is < 0.01 µM.

As to `COc1cccc(-c2cn3ccn(Cc4cccc(Cl)c4)c(=O)c3c(O)c2=O)c1` [Example 128, 2-(3-chlorobenzyl)-9-hydroxy-7-(3-methoxyphenyl)-2H-pyrido[1,2-a]pyrazine-1,8-dione hydrochloride], the IC50 fell in the range of 0.01 to 0.1 µM.

`O=C1c2c(O)c(=O)ccn2C2(CCCC2)CN1Cc1ccc(Cl)c(Cl)c1` [Example 19, 2-(3,4-dichlorobenzyl)-9-hydroxy-3,4-dihydro-2H-pyrido[1,2-a]pyrazine-4-spiro-1′-cyclopentane-1,8-dione]: the IC50 fell in the range of 0.01 to 0.1 µM.

Turning to `CC(C)(C)C(=O)c1cn2c(c(O)c1=O)C(=O)N(Cc1ccc(Cl)c(Cl)c1)CC2` [Example 238, 2-(3,4-dichlorobenzyl)-7-(2,2-dimethylpropionyl)-9-hydroxy-3,4-dihydro-2H-pyrido[1,2-a]pyrazine-1,8-dione], the IC50 was < 0.01 µM.

Turning to `CC(=O)Nc1cc(F)ccc1CN1CCn2cc(-c3nccs3)c(=O)c(O)c2C1=O` [Example 366, N-{5-fluoro-2-[9-hydroxy-1,8-dioxo-7-(thiazol-2-yl)-1,3,4,8-tetrahydro-pyrido[1,2-a]pyrazin-2-ylmethyl]phenyl}acetamide hydrochloride], the IC50 is 0.1 to 1 µM.

Take `O=C(Nc1cn2ccn(Cc3cccc(Cl)c3)c(=O)c2c(O)c1=O)c1cccnc1` [Example 286, N-[2-(3-chlorobenzyl)-9-hydroxy-1,8-dioxo-1,8-dihydro-2H-pyrido[1,2-a]pyrazin-7-yl]nicotinamide trifluoroacetate]: the IC50 is < 0.01 µM.

For `CC(C)NC(=O)c1cn2ccn(Cc3cccc(Cl)c3)c(=O)c2c(O)c1=O` [Example 154, 2-(3-chlorobenzyl)-9-hydroxy-1,8-dioxo-1,8-dihydro-2H-pyrido[1,2-a]pyrazine-7-carboxylic acid isopropylamide], the 50% inhibitory concentration (IC50) was in the range of 0.01 to 0.1 µM.

For `CN(C)C(=O)C1CN(Cc2ccc(Cl)c(Cl)c2)C(=O)c2c(O)c(=O)ccn21` (stereo not shown) [Example 27, N,N-dimethyl-2-(3,4-dichlorobenzyl)-9-hydroxy-1,8-dioxo-1,3,4,8-tetrahydro-2H-pyrido[1,2-a]pyrazine-4-carboxamide], the IC50 lay in the range of 0.1 to 1 µM.

For `O=C1c2c(O)c(=O)c(-c3cnccn3)cn2CCN1Cc1ccc(F)c(Cl)c1` [Example 348, 2-(3-chloro-4-fluorobenzyl)-9-hydroxy-7-(pyrazin-2-yl)-3,4-dihydro-2H-pyrido[1,2-a]pyrazine-1,8-dione], the IC50 lay in the range of 0.01 to 0.1 µM.

As to `O=C(NCCO)c1cn2ccn(Cc3cccc(Cl)c3)c(=O)c2c(O)c1=O` [Example 178, N-(2-hydroxyethyl)-2-(3-chlorobenzyl)-9-hydroxy-1,8-dioxo-1,8-dihydro-2H-pyrido[1,2-a]pyrazine-7-carboxamide], the IC50 lay in the range of 0.01 to 0.1 µM.

For the compound `CC(=O)Nc1cn2c(C)cn(Cc3cccc(Cl)c3)c(=O)c2c(O)c1=O` [Example 423, N-[2-(3-chlorobenzyl)-9-hydroxy-4-methyl-1,8-dioxo-1,8-dihydro-2H-pyrido[1,2-a]pyrazin-7-yl]acetamide], the IC50 fell in the range of 0.01 to 0.1 µM.

Turning to `CS(=O)(=O)Nc1cn2c(c(O)c1=O)C(=O)N(Cc1ccc(F)c(Cl)c1)CC2` [Example 353, N-[2-(3-chloro-4-fluorobenzyl)-9-hydroxy-1,8-dioxo-1,3,4,8-tetrahydro-2H-pyrido[1,2-a]pyrazin-7-yl]methanesulfonamide], the IC50 was < 0.01 µM.

As for `CC(=O)N(C)c1cn2ccn(Cc3cccc(Cl)c3)c(=O)c2c(O)c1=O` [Example 259, N-[2-(3-chlorobenzyl)-9-hydroxy-1,8-dioxo-1,8-dihydro-2H-pyrido[1,2-a]pyrazin-7-yl]-N-methylacetamide], the IC50 is < 0.01 µM.

On to `CC(C)c1cn(Cc2ccc(F)c(Cl)c2)c(=O)c2c(O)c(=O)ccn12` [Example 92, 2-(3-chloro-4-fluorobenzyl)-9-hydroxy-4-isopropyl-2H-pyrido[1,2-a]pyrazine-1,8-dione hydrochloride], for which the half-maximal inhibitory concentration (IC50) is < 0.01 µM.

Usually IC50 stands for the concentration needed to halve the response being measured.
